In general, pEC50 refers to the negative decadic logarithm of the EC50, by convention in mol/L.

Compound in the test: Nc1ncnc2c1ncn2[C@@H]1O[C@H](COP(=O)(O)OP(=O)(O)OP(=O)(O)O)[C@@H](O)[C@H]1O [adenosine triphosphate]
Description: pEC50 of ATP-induced change in protein thermal stability (2D-TPP). A digest of the protocol:
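Each of three independent experiments used Jurkat crude lysate given five concentrations including vehicle (10 min, room temperature), followed by 3 min at one of 12 temperatures from 42 to 63.9 °C and NP40 with benzonase (60 min, 4 °C). TMT LC-MS/MS quantified soluble protein after ultracentrifugation, expressed as fold changes against vehicle at each temperature with median normalisation. For pEC50, dose-response curves were fitted per replicate over adjacent temperature pairs, and hits were called through permutation-based false discovery rate control.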
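Further: lysate dosed with Na-ATP at 0 0.005 0.05 0.5 and 2 mM.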

Sequence of UniProt P51812 (P51812 whole entry): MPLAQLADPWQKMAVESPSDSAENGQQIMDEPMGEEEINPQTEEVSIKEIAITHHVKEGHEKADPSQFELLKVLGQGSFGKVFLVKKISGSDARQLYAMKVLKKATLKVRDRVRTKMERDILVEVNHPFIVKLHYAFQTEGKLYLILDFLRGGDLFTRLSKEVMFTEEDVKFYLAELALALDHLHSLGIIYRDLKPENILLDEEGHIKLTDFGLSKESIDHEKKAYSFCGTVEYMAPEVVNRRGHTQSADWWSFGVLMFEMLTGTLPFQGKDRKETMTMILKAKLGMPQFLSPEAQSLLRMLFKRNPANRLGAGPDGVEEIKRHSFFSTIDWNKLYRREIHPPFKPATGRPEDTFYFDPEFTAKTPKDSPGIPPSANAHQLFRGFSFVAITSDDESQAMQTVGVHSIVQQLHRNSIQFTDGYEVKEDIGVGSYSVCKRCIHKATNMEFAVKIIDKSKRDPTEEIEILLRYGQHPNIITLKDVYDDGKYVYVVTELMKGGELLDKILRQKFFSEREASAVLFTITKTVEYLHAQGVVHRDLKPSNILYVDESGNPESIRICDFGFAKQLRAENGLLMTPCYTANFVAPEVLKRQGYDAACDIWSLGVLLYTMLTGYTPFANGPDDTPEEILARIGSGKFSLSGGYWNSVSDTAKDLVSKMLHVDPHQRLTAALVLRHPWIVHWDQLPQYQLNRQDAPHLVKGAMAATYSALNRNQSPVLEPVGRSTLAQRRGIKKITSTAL
Sequence of UniProt P26639 (P26639 whole entry): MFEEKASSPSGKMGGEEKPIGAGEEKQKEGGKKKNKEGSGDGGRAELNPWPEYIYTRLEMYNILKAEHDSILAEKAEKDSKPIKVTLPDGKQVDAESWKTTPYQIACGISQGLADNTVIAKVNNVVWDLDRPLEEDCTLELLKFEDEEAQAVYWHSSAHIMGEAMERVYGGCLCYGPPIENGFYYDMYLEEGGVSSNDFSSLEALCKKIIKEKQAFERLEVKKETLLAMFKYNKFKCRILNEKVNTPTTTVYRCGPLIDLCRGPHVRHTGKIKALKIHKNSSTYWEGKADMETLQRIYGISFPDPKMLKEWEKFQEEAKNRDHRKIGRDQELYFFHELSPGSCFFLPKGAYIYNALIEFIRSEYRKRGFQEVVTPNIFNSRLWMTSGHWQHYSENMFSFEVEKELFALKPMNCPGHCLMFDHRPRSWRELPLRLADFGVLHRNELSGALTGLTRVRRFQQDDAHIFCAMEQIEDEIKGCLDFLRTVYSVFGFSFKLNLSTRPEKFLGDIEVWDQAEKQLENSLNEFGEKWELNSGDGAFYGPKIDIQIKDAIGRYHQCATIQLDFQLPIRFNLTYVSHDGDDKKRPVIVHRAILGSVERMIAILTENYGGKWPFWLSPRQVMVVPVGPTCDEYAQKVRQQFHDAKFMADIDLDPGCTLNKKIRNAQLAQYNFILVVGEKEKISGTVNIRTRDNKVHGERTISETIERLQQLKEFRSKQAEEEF
Sequence of UniProt P48729 (P48729 whole entry, looked up): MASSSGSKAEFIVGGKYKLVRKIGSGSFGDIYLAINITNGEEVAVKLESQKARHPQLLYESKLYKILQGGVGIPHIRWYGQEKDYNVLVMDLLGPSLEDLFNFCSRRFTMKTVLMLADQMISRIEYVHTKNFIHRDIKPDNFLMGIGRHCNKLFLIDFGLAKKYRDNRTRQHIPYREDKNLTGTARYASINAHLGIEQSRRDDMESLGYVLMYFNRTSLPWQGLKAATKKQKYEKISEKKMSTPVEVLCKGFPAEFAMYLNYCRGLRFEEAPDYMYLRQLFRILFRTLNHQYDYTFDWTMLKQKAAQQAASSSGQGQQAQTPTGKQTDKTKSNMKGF
Sequence of UniProt P0C0S5 (P0C0S5 whole entry): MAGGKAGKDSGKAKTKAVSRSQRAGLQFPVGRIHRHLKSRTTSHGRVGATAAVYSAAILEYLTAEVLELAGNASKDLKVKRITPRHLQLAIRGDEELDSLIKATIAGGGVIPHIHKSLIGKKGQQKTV
Sequence of UniProt O15530 (O15530 whole entry): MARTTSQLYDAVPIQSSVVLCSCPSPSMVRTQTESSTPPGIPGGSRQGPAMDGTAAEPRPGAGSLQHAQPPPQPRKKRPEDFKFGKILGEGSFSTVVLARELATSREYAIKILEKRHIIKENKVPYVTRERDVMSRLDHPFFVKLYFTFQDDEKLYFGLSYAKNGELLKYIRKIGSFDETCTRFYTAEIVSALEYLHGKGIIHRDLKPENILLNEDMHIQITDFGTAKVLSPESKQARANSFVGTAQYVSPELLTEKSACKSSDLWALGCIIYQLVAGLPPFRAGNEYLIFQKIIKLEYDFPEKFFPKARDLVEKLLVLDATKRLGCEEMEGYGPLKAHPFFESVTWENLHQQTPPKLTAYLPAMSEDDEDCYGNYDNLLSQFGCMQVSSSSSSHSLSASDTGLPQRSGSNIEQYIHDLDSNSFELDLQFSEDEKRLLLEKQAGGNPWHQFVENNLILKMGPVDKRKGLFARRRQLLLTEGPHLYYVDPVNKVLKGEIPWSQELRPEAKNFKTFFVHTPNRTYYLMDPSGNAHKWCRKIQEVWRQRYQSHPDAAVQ
Sequence of UniProt O60524 (O60524 whole entry): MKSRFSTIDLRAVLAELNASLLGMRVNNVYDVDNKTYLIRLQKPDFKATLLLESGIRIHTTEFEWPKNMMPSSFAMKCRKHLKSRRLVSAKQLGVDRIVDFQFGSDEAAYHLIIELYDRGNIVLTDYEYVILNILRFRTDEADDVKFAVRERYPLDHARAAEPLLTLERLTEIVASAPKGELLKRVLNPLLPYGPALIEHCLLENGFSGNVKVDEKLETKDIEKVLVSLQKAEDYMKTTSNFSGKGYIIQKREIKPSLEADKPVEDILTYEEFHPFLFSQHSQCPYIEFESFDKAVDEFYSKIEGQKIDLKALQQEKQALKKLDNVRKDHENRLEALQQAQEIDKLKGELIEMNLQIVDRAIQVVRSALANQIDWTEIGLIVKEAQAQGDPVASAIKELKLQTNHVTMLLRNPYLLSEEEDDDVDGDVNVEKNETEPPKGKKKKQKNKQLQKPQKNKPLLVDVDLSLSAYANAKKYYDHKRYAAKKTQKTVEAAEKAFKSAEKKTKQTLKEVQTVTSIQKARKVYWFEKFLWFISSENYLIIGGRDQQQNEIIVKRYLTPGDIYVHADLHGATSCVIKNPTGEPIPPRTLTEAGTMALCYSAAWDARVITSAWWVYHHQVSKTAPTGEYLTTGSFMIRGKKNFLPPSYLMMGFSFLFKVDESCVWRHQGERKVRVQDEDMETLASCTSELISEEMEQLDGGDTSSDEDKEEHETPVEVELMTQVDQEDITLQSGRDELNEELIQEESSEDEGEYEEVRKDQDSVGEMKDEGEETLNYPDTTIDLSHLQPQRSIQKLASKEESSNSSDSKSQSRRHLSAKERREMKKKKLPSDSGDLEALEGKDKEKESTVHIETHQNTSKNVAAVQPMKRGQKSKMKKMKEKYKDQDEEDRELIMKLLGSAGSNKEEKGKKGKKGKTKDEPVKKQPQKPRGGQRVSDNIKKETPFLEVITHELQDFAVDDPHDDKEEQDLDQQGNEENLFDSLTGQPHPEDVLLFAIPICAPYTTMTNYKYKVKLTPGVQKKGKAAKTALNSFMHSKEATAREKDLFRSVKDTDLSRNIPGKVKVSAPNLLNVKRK
Sequence of UniProt P45984 (P45984 whole entry, looked up): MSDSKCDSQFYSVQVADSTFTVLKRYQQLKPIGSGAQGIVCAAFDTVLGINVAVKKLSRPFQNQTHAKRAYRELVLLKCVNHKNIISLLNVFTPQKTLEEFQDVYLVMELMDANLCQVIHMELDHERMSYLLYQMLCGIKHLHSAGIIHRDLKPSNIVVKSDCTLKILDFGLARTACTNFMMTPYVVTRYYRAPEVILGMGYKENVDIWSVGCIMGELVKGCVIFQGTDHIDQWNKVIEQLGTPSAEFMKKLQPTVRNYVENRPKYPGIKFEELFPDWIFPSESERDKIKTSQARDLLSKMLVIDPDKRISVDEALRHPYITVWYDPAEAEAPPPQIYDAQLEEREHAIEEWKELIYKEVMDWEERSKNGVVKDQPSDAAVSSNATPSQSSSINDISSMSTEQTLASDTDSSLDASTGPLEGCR
Sequence of UniProt P62318 (P62318 whole entry): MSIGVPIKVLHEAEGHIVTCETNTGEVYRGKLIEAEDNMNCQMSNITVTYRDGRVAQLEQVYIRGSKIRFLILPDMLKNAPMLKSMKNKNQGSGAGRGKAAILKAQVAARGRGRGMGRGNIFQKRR
Sequence of UniProt P27361 (P27361 whole entry): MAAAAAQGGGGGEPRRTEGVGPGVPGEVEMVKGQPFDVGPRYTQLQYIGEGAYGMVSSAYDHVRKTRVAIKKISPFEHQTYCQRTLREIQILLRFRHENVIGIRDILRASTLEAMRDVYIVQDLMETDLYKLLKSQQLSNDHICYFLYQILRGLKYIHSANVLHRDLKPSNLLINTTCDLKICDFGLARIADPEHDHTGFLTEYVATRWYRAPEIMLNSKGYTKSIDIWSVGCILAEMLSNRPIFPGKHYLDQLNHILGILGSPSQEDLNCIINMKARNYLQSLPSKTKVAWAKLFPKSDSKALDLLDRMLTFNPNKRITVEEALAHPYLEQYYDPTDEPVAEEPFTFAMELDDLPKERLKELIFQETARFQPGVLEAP
Sequence of UniProt P68400 (P68400 whole entry, looked up): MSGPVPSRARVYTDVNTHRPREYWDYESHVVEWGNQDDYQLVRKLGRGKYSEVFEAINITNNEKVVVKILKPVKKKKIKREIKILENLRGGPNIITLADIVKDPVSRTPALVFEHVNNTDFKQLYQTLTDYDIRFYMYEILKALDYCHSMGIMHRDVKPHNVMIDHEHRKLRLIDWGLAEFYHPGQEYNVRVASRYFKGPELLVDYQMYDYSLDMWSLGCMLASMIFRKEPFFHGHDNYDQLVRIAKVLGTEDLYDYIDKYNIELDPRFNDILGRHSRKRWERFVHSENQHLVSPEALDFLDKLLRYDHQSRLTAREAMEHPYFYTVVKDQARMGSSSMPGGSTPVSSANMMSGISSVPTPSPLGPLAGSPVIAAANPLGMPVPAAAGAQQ
Sequence of UniProt P62308 (P62308 whole entry): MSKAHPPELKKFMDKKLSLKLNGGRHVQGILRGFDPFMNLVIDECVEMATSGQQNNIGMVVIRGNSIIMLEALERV

Regarding “UBLCP1 (effect direction: destabilized) (UniProt Q8WVY7)”, the pEC50 was 2.88.

Consider “UCHL5 (effect direction: stabilized) (UniProt Q9Y5K5)”, for which the pEC50 was < 2.7.

“UGDH (effect direction: stabilized) (UniProt O60701)”: the pEC50 came to 3.11.

“UMPS (effect direction: stabilized) (UniProt P11172)”: the pEC50 was < 2.7.

In the case of “USO1 (effect direction: stabilized) (UniProt O60763)”, the pEC50 was < 2.7.

For the target “USP5 (effect direction: stabilized) (UniProt P45974)”, the pEC50 is < 2.7.

In the case of “USP14 (effect direction: stabilized) (UniProt P54578)”, the pEC50 is < 2.7.

Consider “USP47 (effect direction: stabilized) (UniProt Q96K76)”, for which the pEC50 is < 2.7.

For the target “UTP15 (effect direction: destabilized) (UniProt Q8TED0)”, the pEC50 stood at 2.92.

On to “UniProt O00487 (effect direction: stabilized)”, for which the pEC50 worked out at 4.28.

Turning to “UniProt O14757 (effect direction: stabilized)”, the negative logarithm of the EC50 (pEC50) was determined as 3.26.

Consider “UniProt O14920 (effect direction: stabilized)”, for which the pEC50 worked out at 3.5.

Take “UniProt O14965 (effect direction: stabilized)”: the pEC50 was found to be 3.25.

As for “UniProt O15530 (effect direction: stabilized)”, the pEC50 was found to be 3.24.

With “UniProt O43314 (effect direction: stabilized)”, the pEC50 is 4.16.

As for “UniProt O43598 (effect direction: stabilized)”, the pEC50 is 3.25.

For “UniProt O43847 (effect direction: stabilized)”, the pEC50 is < 2.7.

Take “UniProt O43929 (effect direction: stabilized)”: the pEC50 came to 3.63.

Turning to “UniProt O60524 (effect direction: destabilized)”, the pEC50 came out at 3.06.

In the case of “UniProt O60610 (effect direction: stabilized)”, the pEC50 is < 2.7.

In the case of “UniProt O75521 (effect direction: stabilized)”, the pEC50 is < 2.7.

For “UniProt O94826 (effect direction: stabilized)”, the negative-log EC50 (pEC50) came out at 3.14.

As to “UniProt O95071 (effect direction: stabilized)”, the pEC50 was 3.27.

On to “UniProt O95319 (effect direction: stabilized)”, for which the negative logarithm of the EC50 (pEC50) was < 2.7.

“UniProt O96017 (effect direction: stabilized)”: the negative-log EC50 (pEC50) turned out to be 3.33.

Turning to “UniProt P0C0S5 (effect direction: stabilized)”, the pEC50 amounted to 2.96.

For “UniProt P0C0S8 (effect direction: stabilized)”, the pEC50 worked out at 2.92.

Regarding “UniProt P0DMV8 (effect direction: stabilized)”, the pEC50 was 3.72.

“UniProt P04350 (effect direction: stabilized)”: the pEC50 was determined as 3.07.

For the target “UniProt P06493 (effect direction: stabilized)”, the pEC50 amounted to 2.93.

Consider “UniProt P14618 (effect direction: destabilized)”, for which the pEC50 amounted to 2.87.

As to “UniProt P23443 (effect direction: stabilized)”, the pEC50 was 3.7.

As for “UniProt P24539 (effect direction: stabilized)”, the pEC50 is 4.02.

As to “UniProt P24928 (effect direction: destabilized)”, the pEC50 was determined as 3.32.

Take “UniProt P25098 (effect direction: stabilized)”: the pEC50 turned out to be 3.38.

In the case of “UniProt P26639 (effect direction: stabilized)”, the pEC50 was < 2.7.

As for “UniProt P27361 (effect direction: stabilized)”, the pEC50 was 3.54.

Consider “UniProt P28482 (effect direction: stabilized)”, for which the pEC50 stood at 3.16.

“UniProt P35626 (effect direction: stabilized)”: the pEC50 is 3.31.

“UniProt P36507 (effect direction: stabilized)”: the pEC50 was found to be 3.55.

In the case of “UniProt P42285 (effect direction: stabilized)”, the pEC50 was < 2.7.

In the case of “UniProt P45984 (effect direction: stabilized)”, the pEC50 was determined as 3.14.

As for “UniProt P48729 (effect direction: stabilized)”, the pEC50 worked out at 3.3.

In the case of “UniProt P49591 (effect direction: stabilized)”, the pEC50 was < 2.7.

“UniProt P49841 (effect direction: stabilized)”: the pEC50 is 3.37.

Regarding “UniProt P51812 (effect direction: stabilized)”, the pEC50 was 3.89.

On to “UniProt P52434 (effect direction: stabilized)”, for which the pEC50 was < 2.7.

Turning to “UniProt P60842 (effect direction: stabilized)”, the pEC50 came out at 3.47.

For the target “UniProt P60891 (effect direction: stabilized)”, the negative-log EC50 (pEC50) came to 3.

Turning to “UniProt P61163 (effect direction: stabilized)”, the pEC50 came to 3.1.

As to “UniProt P61254 (effect direction: destabilized)”, the pEC50 was < 2.7.

As for “UniProt P61353 (effect direction: destabilized)”, the pEC50 was > 5.3.

Take “UniProt P61513 (effect direction: destabilized)”: the pEC50 is 3.27.

“UniProt P61956 (effect direction: destabilized)”: the negative-log EC50 (pEC50) stood at 3.07.

With “UniProt P62081 (effect direction: destabilized)”, the pEC50 was found to be 3.68.

Take “UniProt P62191 (effect direction: stabilized)”: the pEC50 is 4.55.

Turning to “UniProt P62195 (effect direction: stabilized)”, the pEC50 stood at 4.18.

As for “UniProt P62241 (effect direction: destabilized)”, the pEC50 was found to be 3.14.

For “UniProt P62263 (effect direction: destabilized)”, the pEC50 came out at 2.97.

With “UniProt P62266 (effect direction: destabilized)”, the pEC50 came out at 3.33.

“UniProt P62269 (effect direction: destabilized)”: the pEC50 is < 2.7.

As to “UniProt P62277 (effect direction: destabilized)”, the pEC50 was 3.88.

Turning to “UniProt P62280 (effect direction: destabilized)”, the negative-log EC50 (pEC50) came to 4.05.

With “UniProt P62308 (effect direction: destabilized)”, the pEC50 was found to be 2.78.

As to “UniProt P62316 (effect direction: destabilized)”, the pEC50 was < 2.7.

For the target “UniProt P62318 (effect direction: destabilized)”, the pEC50 is < 2.7.

For the target “UniProt P62495 (effect direction: stabilized)”, the pEC50 was < 2.7.

“UniProt P62753 (effect direction: destabilized)”: the negative logarithm of the EC50 (pEC50) was 3.15.

For “UniProt P62826 (effect direction: destabilized)”, the pEC50 was determined as 3.01.

“UniProt P62841 (effect direction: destabilized)”: the pEC50 is 2.99.

Turning to “UniProt P62847 (effect direction: destabilized)”, the pEC50 worked out at 4.16.

On to “UniProt P62899 (effect direction: destabilized)”, for which the pEC50 was 3.

For the target “UniProt P68400 (effect direction: stabilized)”, the negative-log EC50 (pEC50) came out at 4.09.

For the target “UniProt P68431 (effect direction: stabilized)”, the pEC50 was 2.79.

As for “UniProt P78356 (effect direction: stabilized)”, the pEC50 worked out at 2.83.

Take “UniProt P83731 (effect direction: destabilized)”: the pEC50 amounted to 3.11.

Consider “UniProt P84085 (effect direction: destabilized)”, for which the pEC50 was < 2.7.

As for “UniProt P84095 (effect direction: destabilized)”, the negative logarithm of the EC50 (pEC50) came to 3.01.

As to “UniProt P84098 (effect direction: destabilized)”, the pEC50 is 2.89.

With “UniProt Q5JUR7 (effect direction: stabilized)”, the pEC50 worked out at 3.36.

Regarding “UniProt Q5VZE5 (effect direction: stabilized)”, the pEC50 was 2.92.

With “UniProt Q6ZUM4 (effect direction: stabilized)”, the pEC50 was determined as 3.74.

Regarding “UniProt Q7L9L4 (effect direction: stabilized)”, the pEC50 is 2.98.

As to “UniProt Q7Z2Z2 (effect direction: stabilized)”, the pEC50 is 2.78.

Take “UniProt Q7Z3D6 (effect direction: destabilized)”: the negative-log EC50 (pEC50) was determined as 2.79.

For the target “UniProt Q8N1G2 (effect direction: stabilized)”, the negative logarithm of the EC50 (pEC50) came to 3.14.

As for “UniProt Q8N2M8 (effect direction: stabilized)”, the pEC50 is < 2.7.

“UniProt Q8N4C8 (effect direction: stabilized)”: the pEC50 was 3.74.

The values are drawn from the supplement of paper PMC6411743.
